In patent US6596499B2, “Membrane molecule indicator compositions and methods” (The Netherlands Cancer Institute, priority 2000, dated 2003):

What was measured:
PLC = type: cell-based, mouse
N1E-115 cells = details: N1E-115 and other cells; cited from earlier work

Row | Molecule | translocation amplitude (PLC) | time for neurites to retract and cell soma to round up (N1E-115 cells) [s] | duration of translocation response (long-lasting) (PLC) [min] | desensitization of PLC activation on repeated stimulation (PLC)
1 | CCCCCCCC/C=C\CCCCCCCC(=O)OCC(O)COP(=O)(O)O (centres unmarked) [LPA, 1-oleoyl LPA] | 25 % of BK response control values | ≤ 60 | – | –
2 | NCCc1c[nH]cn1 [histamine] | 40 % of BK-induced peak values | – | ≥ 15 | –
3 | neurokinin A [NKA] | – | – | – | incremental partial homologous desensitization
